Laboratory results from patent publication US10738019B2, “Compound including basic dye and amino acid, hair dyeing dye, and hair dyeing composition” (HODOGAYA CHEMICAL CO., LTD., priority 2018, dated 2020).

Experiment: Water solubility, foaming property and hair feel during hair dyeing
Type: physicochemical
Conditions: for hair dyeing (dyeing gel, pH 6 aqueous solution)
Procedure: Subsequently, Human White hair 100% BM-W manufactured by Beaulax Co., Ltd. was used as hair to be dyed. Two parts by mass of the dyeing gel was taken with respect to 1 part by mass of the hair and applied to the hair uniformly using a comb, and the hair was dyed at 40° C. for 10 minutes and washed with water.

SMILES | water solubility
CC1=CC(=C(c2ccc(N)c(C)c2)c2ccc(N)c(C)c2)C=CC1=N [Compound (A-3)] | sufficient water solubility for hair dyeing
C[N+](C)(C)c1ccc2ccc(O)c(N=Nc3ccc(N)cc3)c2c1 [Compound (A-5)] | sufficient water solubility for hair dyeing
